Data published in ChEMBL document CHEMBL1135807, “2,5'-Disubstituted adenosine derivatives: evaluation of selectivity and efficacy for the adenosine A(1), A(2A), and A(3) receptor” (J Med Chem, 2002).

Experiments:
[1] = target: Adenosine receptor A2a (Rattus norvegicus, UniProt P30543)
Description: Binding affinity at Adenosine A2A receptor in rat striatal membrane by [3H]ZM-241385 displacement.

[2] = target: T1, Adenosine receptor A3 (Homo sapiens) (UniProt P0DMS8); assay: Percent inhibition of forskolin induced (10 uM) cAMP production compared to C1-IB-MECA through Adenosine A3 receptor expressed in CHO cells at 100 uM; format: functional, cell-based
T1 sequence (whole entry): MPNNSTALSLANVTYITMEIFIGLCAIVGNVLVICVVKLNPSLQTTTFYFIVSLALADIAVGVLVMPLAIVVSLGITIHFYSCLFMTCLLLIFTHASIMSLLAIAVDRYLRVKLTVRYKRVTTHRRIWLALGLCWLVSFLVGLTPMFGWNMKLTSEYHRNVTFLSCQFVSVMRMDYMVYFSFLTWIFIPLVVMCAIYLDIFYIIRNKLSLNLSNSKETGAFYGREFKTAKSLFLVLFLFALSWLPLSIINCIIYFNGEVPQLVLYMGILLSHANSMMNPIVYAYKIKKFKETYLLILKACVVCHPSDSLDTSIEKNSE

[3] = target: T2, Adenosine receptor A1 (Rattus norvegicus) (UniProt P25099); assay: Ability to displace [3H]DPCPX from Adenosine A1 receptor in rat cortical membrane at 10e-5 M; format: cell membranes
T2 sequence (whole entry): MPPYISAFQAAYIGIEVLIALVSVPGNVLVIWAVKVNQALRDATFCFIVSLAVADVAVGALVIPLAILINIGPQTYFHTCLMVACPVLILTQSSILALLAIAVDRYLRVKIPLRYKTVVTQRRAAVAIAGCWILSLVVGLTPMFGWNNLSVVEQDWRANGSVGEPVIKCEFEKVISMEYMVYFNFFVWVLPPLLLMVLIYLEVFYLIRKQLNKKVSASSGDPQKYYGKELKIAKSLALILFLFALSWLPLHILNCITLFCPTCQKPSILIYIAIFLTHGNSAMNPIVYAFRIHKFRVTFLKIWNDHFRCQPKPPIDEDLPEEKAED

[4] = target: Adenosine receptor A2a (Homo sapiens, UniProt P29274); assay: G-protein activation in human Adenosine A2A receptor expressed in CHO cells using cAMP assay; format: functional, cell-based
Adenosine receptor A2a (Homo sapiens, UniProt P29274), sequence (P29274 whole entry): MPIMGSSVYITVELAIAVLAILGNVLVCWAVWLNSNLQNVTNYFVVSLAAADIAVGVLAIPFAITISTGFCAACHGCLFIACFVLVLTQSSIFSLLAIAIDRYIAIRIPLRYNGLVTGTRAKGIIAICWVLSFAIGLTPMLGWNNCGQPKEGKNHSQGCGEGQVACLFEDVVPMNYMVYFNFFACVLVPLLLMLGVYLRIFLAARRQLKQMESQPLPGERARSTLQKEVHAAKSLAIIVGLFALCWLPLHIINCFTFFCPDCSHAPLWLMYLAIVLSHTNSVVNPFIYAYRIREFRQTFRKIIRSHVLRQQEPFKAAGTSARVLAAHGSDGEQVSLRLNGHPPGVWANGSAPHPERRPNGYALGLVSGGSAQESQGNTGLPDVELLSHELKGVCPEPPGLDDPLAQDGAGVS

[5] = target: T3, Adenosine receptor A3 (Homo sapiens, UniProt P0DMS8); assay: biochemical
T3 sequence (P0DMS8 whole entry): T1 sequence (whole entry)
Description: Binding affinity at human Adenosine A3 receptor expressed in HEK 293 cells by [125I]-AB MECA displacement.

[6] = target: T4, Adenosine receptor A1 (Rattus norvegicus, UniProt P25099); assay: Ability to displace [3H]DPCPX from Adenosine A1 receptor in rat cortical membrane; format: cell membranes
T4 sequence (P25099 whole entry): T2 sequence (whole entry)

[7] = target: T2, Adenosine receptor A1 (Rattus norvegicus); assay: Displacement of [3H]DPCPX from Adenosine A1 receptor in rat cortical membrane at 10e-5 M; format: cell membranes
[8] = target: T1, Adenosine receptor A3 (Homo sapiens); assay: % inhibition of forskolin induced (10 uM) cAMP production compared to C1-IB-MECA through Adenosine A3 receptor expressed in CHO cells at 30 uM; format: functional, cell-based

Adenosine receptor A2a (Rattus norvegicus, UniProt P30543), sequence (P30543 whole entry): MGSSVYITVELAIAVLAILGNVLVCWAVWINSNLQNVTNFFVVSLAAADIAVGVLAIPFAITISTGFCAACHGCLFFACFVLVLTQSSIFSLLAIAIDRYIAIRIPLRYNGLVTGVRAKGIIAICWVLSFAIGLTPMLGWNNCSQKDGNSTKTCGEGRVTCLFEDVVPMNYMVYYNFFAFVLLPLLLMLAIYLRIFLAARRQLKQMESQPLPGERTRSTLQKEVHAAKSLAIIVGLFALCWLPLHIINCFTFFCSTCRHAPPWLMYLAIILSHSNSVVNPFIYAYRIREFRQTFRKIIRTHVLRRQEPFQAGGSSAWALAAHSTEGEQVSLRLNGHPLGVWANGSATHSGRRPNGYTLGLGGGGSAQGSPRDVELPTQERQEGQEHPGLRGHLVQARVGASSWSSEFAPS

Ki [1] [nM] | Emax [2] [%] | Displacement [3] [%] | EC50 [4] [nM] | Ki [5] [nM] | Ki [6] [nM] | Displacement [7] [%] | Emax [8] [%] | SMILES
500 | 7 | 21.2 | 7500 | 814 | – | – | – | CCSC[C@H]1O[C@@H](n2cnc3c(N)nc(N/N=C/CC(C)C)nc32)[C@H](O)[C@@H]1O
1500 | 16 | 22 | 12900 | 697 | – | – | – | CCCSC[C@H]1O[C@@H](n2cnc3c(N)nc(N/N=C/CC(C)C)nc32)[C@H](O)[C@@H]1O
820 | – | 56.2 | – | – | – | – | – | CC(C)SC[C@H]1O[C@@H](n2cnc3c(N)nc(I)nc32)[C@H](O)[C@@H]1O
1800 | – | – | 10400 | 409 | – | 13 | 26 | CC(C)C/C=N/Nc1nc(N)c2ncn([C@@H]3O[C@H](CSC(C)C)[C@@H](O)[C@H]3O)c2n1
220 | – | 18.9 | 5000 | 253 | – | – | 41 | CSC[C@H]1O[C@@H](n2cnc3c(N)nc(N/N=C/CC(C)C)nc32)[C@H](O)[C@@H]1O
– | – | 36.1 | – | – | – | – | – | Nc1nc(I)nc2c1ncn2[C@@H]1O[C@H](CO)[C@@H](O)[C@H]1O
20 | – | 18.9 | 1100 | 38.3 | – | – | – | CC(C)C/C=N/Nc1nc(N)c2ncn([C@@H]3O[C@H](CO)[C@@H](O)[C@H]3O)c2n1

The next lines start with the molecule.

SMILES | Ki [1] [nM] | Emax [2] [%] | Displacement [3] [%] | EC50 [4] [nM] | Ki [5] [nM] | Ki [6] [nM] | Displacement [7] [%] | Emax [8] [%]
CCCSC[C@H]1O[C@@H](n2cnc3c(N)nc(I)nc32)[C@H](O)[C@@H]1O | 440 | – | – | – | – | 1050 | – | –
CCCCC#Cc1nc(N)c2ncn([C@@H]3O[C@H](CSC(C)C)[C@@H](O)[C@H]3O)c2n1 | 220 | – | – | 3600 | – | 1270 | – | –
CCCCC#Cc1nc(N)c2ncn([C@@H]3O[C@H](CSCCC)[C@@H](O)[C@H]3O)c2n1 | 170 | – | – | 800 | – | – | 46.5 | –
CCCCC#Cc1nc(N)c2ncn([C@@H]3O[C@H](CSCC)[C@@H](O)[C@H]3O)c2n1 | 110 | – | – | 500 | – | 2180 | – | –
CSC[C@H]1O[C@@H](n2cnc3c(N)nc(I)nc32)[C@H](O)[C@@H]1O | 3900 | – | – | – | – | – | – | –
CCSC[C@H]1O[C@@H](n2cnc3c(N)nc(I)nc32)[C@H](O)[C@@H]1O | 1200 | – | – | – | – | 386 | – | –
CCCCC#Cc1nc(N)c2ncn([C@@H]3O[C@H](CSC)[C@@H](O)[C@H]3O)c2n1 | 60 | – | – | 700 | – | – | – | –
